Bounds are passed on as bounds.

In general, IC50 refers to the concentration needed to halve the response being measured.

Assay [1] concerns LAPC-4. The experiment in a line: MTT growth inhibition, prostate cancer cell line LAPC-4. It counts as cell-based, human. The note with it: for IC50: Homo sapiens, LAPC4, MTT, average of three independent experiments. The method, then: (§1) This MTT assay was carried using human prostate cancer cell lines CWR22R, LAPC-4 and LnCap using Promega cell titer 96 nonradioactive cell proliferation kit. Cells were trypsinized and centrifuged at 1000 rpm for 5 minutes and the supernatant was aspirated. Cells were resuspended with HBSS to a concentration of […]. Cell suspension was diluted in serum containing medium to plate 2000 cells/well/0.2 ml. Cell suspension was transferred to sterile solution basin. Cells were plated using multichannel pipette set at 200 μl and incubated overnight for attachment. One plate was prepared for day 0 MTT assay as follows: 100 μl of media was removed from each well using multichannel pipette and 15 μl of MTT reagent was added. Plates were incubated at 37° C. for 4 hrs. 100 μl of STOP solution was added to each well and incubated at room temperature for 1 hour. Absorbance was measured at 570 and 650 nm on plate reader. All the media from the remaining plates were carefully removed and the cells were treated with the media containing drug. MTT assays were done on days 0, 3, 5 and 7. In the preliminary screening four BPU sulfur analogs 6l, 6h, 6n, 7d and 8h were screened and their activity was compared with compound 1.
(§2) Compounds with significant inhibitory activity in pancreatic cancer cells were further evaluated against prostate cancer cell lines in the MTT assay, (Mosmann, T., J. Immunol. Methods 65:55-63 (1983)) and the results were compared to those for compound 1 (Table 3).

The test system of assay [2] is CWR22R. Nature of the assay: MTT growth inhibition, prostate cancer cell line CWR22R. It counts as cell-based, human. As to conditions: for IC50: Homo sapiens, 22Rv1, MTT, average of three independent experiments. The method, then: as §1, §2
The test system of assay [3] is LnCaP. Nature of the assay: MTT growth inhibition, prostate cancer cell line LnCaP. In kind it is cell-based, human. As to conditions: for IC50: Homo sapiens, LNCaP, MTT, average of three independent experiments. The method, then:
as §1, §2

Assay [4] concerns MCF-7 cells. Nature of the assay: Apoptosis of MCF-7 cells. As to conditions: 48 hours. In kind it is cell-based.
Assay [5] deals with Miapaca2. The experiment in a line: MTT growth inhibition, pancreatic cancer cell line Miapaca2. In kind it is cell-based. As to conditions: for IC50: Homo sapiens, MIA PaCa-2, MTT, 96-hours treatment, average of three independent experiments. The method, then: (§3) Eight of these analogs 6d, 6h, 6n, 6g, 7b, 7d, 8g, and 8h were tested for their cytotoxicity in seven pancreatic cell lines ASPC1, Panc1, Panc203, Panc430, Pane 1005, MiaPaca2, and HS766T using MTT assay. Cells were trypsinized, seeded at 5×10^3 cells/well in 96-well plate and allowed to grow for 24 hours before the treatment with exponential increasing concentrations of drugs in the presence of 10% FBS. After a 96-hours period of treatment, 20 μl of MTT solution (5 mg/ml in PBS) were added to each well, and the plates were then incubated for 3 hours at 37° C. Medium was then replaced with 100 μl of DMSO per well. Plates were shaken and the optical density was measured at 570 nm using a multiwell plate reader (Bio-Rad, Model 550, Bio-Rad Inc., Hercules, Calif.). Each experiment was performed in triplicate for each drug concentration and was carried out independently at least 3 times. The IC50 value was defined as the concentration needed for a 50% reduction in the absorbance calculated based on the survival curves. Response to drug treatment was assessed by standardizing treatment groups to untreated controls. Compounds activity was compared with compound 1.
(§4) Biology. Table 2 (Growth Inhibition of Pancreatic Cancer Cell Lines by BPU and BPTU Analogues (IC50)^a)compares the cytotoxicity of a series of new derivatives against a panel of seven pancreatic cancer cell lines, as determined by MTT assay. See, Mosmann, T., J. Immunol. Methods 65:55-63 (1983).

Assay [6] deals with tubulin (colchicine binding site). The experiment in a line: Inhibition of [3H]colchicine binding.
In assay [7] the test system is seven pancreatic cell lines. Nature of the assay: MTT growth inhibition, panel of seven pancreatic cancer cell lines. It counts as cell-based. As to conditions: for times more potent than compound 1, pancreatic cell lines: MTT, seven pancreatic cell lines. The method, then: as §3, §4
The test system of assay [8] is Panc203. The experiment in a line: MTT growth inhibition, pancreatic cancer cell line Panc203. In kind it is cell-based. The note with it: for IC50: Homo sapiens, Panc203, MTT, 96-hours treatment, average of three independent experiments. The method, then:
as §3, §4

In assay [9] the test system is prostate cancer cell lines CWR22R, LAPC-4 and LnCap. Nature of the assay: MTT growth inhibition, prostate cancer cell lines (panel). In kind it is cell-based, human. The note with it: preliminary screening. The method, then: as §1, with “In the preliminary screening four BPU sulfur analogs 6l, 6h, 6n, 7d and 8h were screened and their activity was compared with compound 1.” left out
as §2

Assay [10] relates to Panc1. Nature of the assay: MTT growth inhibition, pancreatic cancer cell line Panc1. In kind it is cell-based. As to conditions: for IC50: Homo sapiens, PANC-1, MTT, 96-hours treatment, average of three independent experiments. The method, then: as §3, §4
For assay [11], the system named is Panc430. The experiment in a line: MTT growth inhibition, pancreatic cancer cell line Panc430. It counts as cell-based. As to conditions: for IC50: Pancreatic cancer cell, MTT, 96-hours treatment, average of three independent experiments. The method, then: as §3, §4
Assay [12] has as its system ASPC1. Nature of the assay: MTT growth inhibition, pancreatic cancer cell line ASPC1. In kind it is cell-based. As to conditions: Homo sapiens, 96-hours treatment, average of three independent experiments. The method, then:
as §3, §4

The subject of assay [13] is Panc1005. The experiment in a line: MTT growth inhibition, pancreatic cancer cell line Panc1005. It counts as cell-based. As to conditions: Homo sapiens, 96-hours treatment, average of three independent experiments. The method, then: as §3, §4
In assay [14] the test system is HS766. Nature of the assay: MTT growth inhibition, pancreatic cancer cell line HS766. In kind it is cell-based. As to conditions: Homo sapiens, Hs 766, 96-hours treatment, average of three independent experiments. The method, then: as §3, §4

In the case of `O=C(NC(=O)c1ccccc1[N+](=O)[O-])Nc1ccc(Sc2ncccn2)cc1` [Compound 6l], the IC50 in assay [1] is 0.6 µM; in assay [2], 5 µM; in assay [3] it was 0.5 µM.

With `Cc1cc(NC(=O)NC(=O)c2ccccc2N(C)C)ccc1Oc1ncc(Br)cn1` [Compound 1], the “rate of apoptosis, MCF-7 cells” value in assay [4] (10 nM) is 16.1%; in [4] (30 nM), 19.5%; in assay [4] (100 nM) it was 27.7%.

As for `O=C(NC(=O)c1ccccc1[N+](=O)[O-])Nc1ccc(Sc2ncc(Br)cn2)cc1` [Compound 6n, 1-[4-(5-Bromopyrimidin-2-ylsulfanyl)phenyl]-3-(2-nitrobenzoyl)-urea], the “increase in potency of 6n over 6m, Mia-paca2” value in assay [5] (sulfide versus ether link) was determined as 8 fold. For the same compound, the “binding to the colchicine binding site (in words)” value in [6] is “poor binding affinity”. Besides, the “times more potent than compound 1, pancreatic cell lines” value in assay [7] is 20 time. Besides, in assay [8] (sulfide versus ether link), the “increase in potency of 6n over 6m, Panc203” value turned out to be 14 fold. The “increase in potency of 6n over 6m, CWR22R” value in assay [2] (sulfide versus ether link) is on record as 100 fold. Further, the “killing of MCF-7 cells compared with 1 (in words)” value in [4] was “more potent than 1”. For the same compound, the “times more potent than compound 1, prostate cancer cell lines” value in [9] is reported as 20 times. Also, the “increase in potency of 6n over 6m, LnCap” value in assay [3] (sulfide versus ether link) was determined as 20 fold. Moreover, the “increase in potency of 6n over 6m, Panc1” value in assay [10] (sulfide versus ether link) was 8 fold.

For `O=C(NC(=O)c1ccccc1[N+](=O)[O-])Nc1ccc(Oc2nccc(Br)n2)cc1` [Compound 6m], the “binding to the colchicine binding site (in words)” value in [6] is given as “poor binding affinity”.

Take `Nc1ccccc1C(=O)NC(=O)Nc1ccc(Sc2ncc(Br)cn2)cc1` [Compound 7d, 1-(2-Aminobenzoyl)-3-[4-(5-bromopyrimidin-2-ylsulfanyl)phenyl]urea]: in assay [11] (sulfide versus ether link), the “increase in activity of 7d compared to 7c, Panc430” value is on record as greater than 50 fold. In assay [5] (sulfide versus ether link), the “increase in activity of 7d compared to 7c, Miapaca2” value is listed as 9 fold. Further, the “increase in activity of 7d compared to 7c, LAPC-4” value in assay [1] (sulfide versus ether link) stood at 7 fold. For the same compound, in [7], the “times more potent than compound 1, pancreatic cell lines” value turned out to be 20 time. The “increase in activity of 7d compared to 7c, Panc203” value in assay [8] (sulfide versus ether link) is listed as greater than 117 fold. Further, the “times more potent than compound 1, prostate cancer cell lines” value in [9] is reported as 20 times. Further, the “increase in activity of 7d compared to 7c, Panc1” value in assay [10] (sulfide versus ether link) worked out at 39 fold.

`N=C(NC(=O)c1ccccc1)Oc1ccc(Sc2ncc(Br)cn2)cc1` [Compound 6g]: the IC50 in assay [11] is 2 µM; in assay [5], 5 µM; in assay [12] it was greater than 10 µM; in [8], 7.5 µM; in [13], greater than 10 µM; in [14], 5.5 µM. Moreover, the half-inhibitory concentration (IC50) in assay [10] is greater than 10 µM.

On to `O=C(NC(=S)Nc1ccc(Sc2ncc(Br)cn2)cc1)c1ccccc1` [Compound 6h], for which the 50% inhibitory concentration (IC50) is 7.5 µM in [11]; 10 µM in [5]; 6 µM in [1]; 10 µM in [12]; greater than 10 µM in assay [8]; greater than 10 µM in assay [2]. Further, the IC50 in assay [13] is greater than 10 µM; in [14], 8.5 µM; in assay [3], greater than 10 µM; in [10], 9.5 µM.

As to `Nc1ccccc1C(=O)NC(=O)Nc1ccc(Sc2ncccn2)cc1` [Compound 7b], the IC50 in [11] is 6.5 µM; in [5] it was 7 µM; in [12], 6 µM; in assay [8], 5.5 µM; in assay [13], greater than 10 µM; in assay [14], 8 µM. Further, in assay [10], the half-maximal inhibitory concentration (IC50) was determined as 7.5 µM.

As to `O=C(NC(=O)c1ccccc1[N+](=O)[O-])Nc1ccc([S+]([O-])c2ncc(Br)cn2)cc1` (stereo not shown) [Compound 8g, 1-[4-(5-Bromopyrimidine-2-sulfinyl)phenyl]-3-(2-nitrobenzoyl)-urea], the IC50 in assay [11] was 5.5 µM; in [5], 8 µM; in [7] (Pancreatic cancer cell, all the cell lines of the panel), 2.5 to 8 µM; in assay [12], 2.5 µM; in assay [8] it was 5.5 µM; in assay [13] it was 5.5 µM. The IC50 in assay [14] and in [10] was 6.5 µM throughout.

The values are drawn from patent publication US7595326B2, “Synthesis of novel tubulin polymerization inhibitors: benzoylphenylurea (BPU) sulfur analogs” (Champions Biotechnology, Inc., priority 2005, dated 2009).
